# From patent US20250275991A1, “ORAL COMPLEMENT FACTOR D INHIBITORS” (BioCryst Pharmaceuticals, Inc, priority 2019, published 2025)
# Target: Factor D (Homo sapiens, UniProt P00746)
# Assay: Factor D esterolytic assay
# Type: biochemical
# Settings: substrate Z-Lys-SBzl 1.29 mM, 100 mM HEPES, 500 mM NaCl, pH 7.5, 10% DMSO, tested a minimum of three times
# Method: The IC50 value of a compound (i.e., the concentration of the compound that inhibits 50% of the enzymatic activity) was calculated according to the procedure reported in U.S. Pat. No. 6,653,340 B1, e.g., column 74 (incorporated by reference).
# Specifically, the compounds were dissolved in a stock solution of DMSO at 10.0 or 100 mM. A portion of this stock solution was added to assay buffer in a final volume of 50 μL. Controls included buffer alone and enzyme solutions to which DMSO was added. Substrate was added to the reaction wells immediately or after incubation at room temperature. The reaction rates were measured spectrophotometrically by the generation of product at 405 nm for 600 sec. Background absorbance at 690 nm was measured and subtracted from the absorbance at 405 nm for each well.
# The reaction rate for enzyme alone was compared to the rate of enzyme in the presence of inhibitor and the percent inhibition was calculated as shown below: […]
# An established esterolytic assay for the measurement of Factor D activity and inhibition of Factor D activity was used (Kam, C. M.; McRae, B. J.; Harper, J. W.; Niemann, M. A.; Volanakis, J. E.; Powers, J. C. Human complement proteins D, C2, and B Active site mapping with peptide thioester substrates. J Biol. Chem. 1987, 262, 3444-3451). For this assay Z-Lys-SBzl, 1.29 mM (Kim, S.; Narayana, S. V. L; Volanakis, J. E. Mutational analysis of the substrate binding site of human complement Factor D. Biochemistry. 1994, 33, 14393-14399.) was used as the substrate for Factor D ([…]). Hydrolysis of this compound by Factor D liberated a free sulfhydryl group which is then reacted with 5,5′-dithiobis(2nitrobenzoic acid) producing an intense yellow color (Habeeb, A. F. S. A. Reaction of protein sulfhydryl groups with Ellman's Reagent. Methods in Enzymol. 1976, 25, 457-464). The assays were performed in 96 well microtiter plates and rates of hydrolysis were monitored at 405 nm on a Biotek Synergy H1 plate reader. Hydrolysis rates were reported as change in mOD/min. The assay was conducted in 100 mM HEPES, 500 mM NaCl, pH 7.5 containing 10% DMSO in a final volume of 50 μL per well.
# An IC50, a compound concentration which inhibits 50% of the enzymatic activity, was calculated. Compounds in the examples were tested a minimum of three times.
# Sequence of Factor D (P00746 26-253): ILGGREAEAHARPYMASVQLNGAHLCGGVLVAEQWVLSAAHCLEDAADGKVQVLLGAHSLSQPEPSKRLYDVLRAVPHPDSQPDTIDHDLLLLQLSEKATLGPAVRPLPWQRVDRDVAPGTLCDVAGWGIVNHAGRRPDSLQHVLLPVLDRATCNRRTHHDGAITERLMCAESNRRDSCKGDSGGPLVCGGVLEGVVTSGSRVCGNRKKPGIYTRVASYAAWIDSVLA
row,SMILES,IC50
1,"NCc1cccc(-c2cc(COc3cc(CN)ccc3CC(=O)O)cc3c(C(F)(F)F)coc23)c1 [Compound 31d, 2-(4-(aminomethyl)-2-((7-(3-(aminomethyl)phenyl)-3-(trifluoromethyl)benzofuran-5-yl)methoxy)phenyl)acetic acid]",< 1000 nM
2,"COc1ccc(CC(=O)O)c(OCc2cc(-c3ccnc(CN)c3)c3occc3c2F)c1 [Compound 43d, 2-(2-((7-(2-(aminomethyl)pyridin-4-yl)-4-fluorobenzofuran-5-yl)methoxy)-4-methoxyphenyl)acetic acid]",< 1000 nM
3,"NCc1cccc(-c2cc(COc3ccccc3CC(=O)O)cc3c(F)coc23)c1F [Compound 45b, 2-(2-((7-(3-(aminomethyl)-2-fluorophenyl)-3-fluorobenzofuran-5-yl)methoxy)phenyl)acetic acid]",< 1000 nM
4,"CCOC(=O)NCc1cc2cc(COc3ccccc3CC(=O)O)cc(-c3cccc(CN)c3)c2o1 [Compound 25h, 2-(2-((7-(3-(aminomethyl)phenyl)-2-(((ethoxycarbonyl)amino)methyl)benzofuran-5-yl)methoxy)phenyl)acetic acid]",< 1000 nM
5,"NCc1cccc(-c2cc(COc3ccc(F)cc3CC(=O)O)cc3cc(F)oc23)c1 [Compound 16f, 2-(2-((7-(3-(aminomethyl)phenyl)-2-fluorobenzofuran-5-yl)methoxy)-5-fluorophenyl)acetic acid]",< 1000 nM
6,"CC(N)c1cc(-c2cc(COc3ccccc3CC(=O)O)cc3ccoc23)cs1 (stereo not drawn) [Compound 4c, 2-(2-((7-(5-(1-aminoethyl)thiophen-3-yl)benzofuran-5-yl)methoxy)phenyl)acetic acid]",> 10000 nM
7,"CC(N)c1ccc(CC(=O)O)c(OCc2cc(-c3cccc(CN)c3)c3occc3c2)c1 (single isomer, unassigned; (+)) [Compound 60a, (+)-2-(4-(1-aminoethyl)-2-((7-(3-(aminomethyl)phenyl)benzofuran-5-yl)methoxy)phenyl)acetic acid]",< 1000 nM
8,"CC(O)c1ccc(CC(=O)O)c(OCc2cc(-c3cccc(CN)c3)c3occc3c2)c1 (stereo not drawn) [Compound 72e, 2-(2-((7-(3-(aminomethyl)phenyl)benzofuran-5-yl)methoxy)-4-(1-hydroxyethyl)phenyl)acetic acid]",< 1000 nM
9,"COc1ccc(CC(=O)O)c(OCc2cc(-c3cccc(C(N)CF)c3)c3occc3c2)c1 (single isomer, unassigned; (+)) [Compound 14k, (+)-2-(2-((7-(3-(1-amino-2-fluoroethyl)phenyl)benzofuran-5-yl)methoxy)-4-methoxyphenyl)acetic acid]",< 1000 nM
10,"Cc1ccc(CC(=O)O)c(OCc2cc(-c3ccnc(CN)c3)c3occc3c2)c1C [Compound 22h, 2-(2-((7-(2-(aminomethyl)pyridin-4-yl)benzofuran-5-yl)methoxy)-3,4-dimethylphenyl)acetic acid]",< 1000 nM
11,"CCOP(=O)(NCc1ccc(CC(=O)O)c(OCc2cc(-c3cccc(CN)c3)c3occc3c2)c1)OCC [Compound 32c, 2-(2-((7-(3-(aminomethyl)phenyl)benzofuran-5-yl)methoxy)-4-((diethoxyphosphorylamino)methyl)phenyl)acetic acid]",< 1000 nM
12,"NCc1cccc(-c2cc(COc3cc(OC(F)(F)F)ccc3CC(=O)O)cc3ccoc23)c1 [Compound 10d, 2-(2-((7-(3-(aminomethyl)phenyl)benzofuran-5-yl)methoxy)-4-(trifluoromethoxy)phenyl)acetic acid]",< 1000 nM
13,"COC(=O)Nc1ccc(CC(=O)O)c(OCc2cc(-c3cccc(CN)c3)c3occc3c2)c1 [Compound 19i, 2-(2-((7-(3-(aminomethyl)phenyl)benzofuran-5-yl)methoxy)-4-((methoxycarbonyl)amino)phenyl)acetic acid]",< 1000 nM
14,"COc1c(COc2ccccc2CC(=O)O)cc(-c2cccc(CN)c2)c2occc12 [Compound 67f, 2-(2-((7-(3-(aminomethyl)phenyl)-4-methoxybenzofuran-5-yl)methoxy)phenyl)acetic acid]",< 1000 nM

# Next, values leading:
row,IC50,SMILES
1,< 1000 nM,"NCc1nccc(-c2cc(COc3ccc(F)cc3CC(=O)O)cc3cc(F)oc23)c1F [Compound 17d, 2-(2-((7-(2-(aminomethyl)-3-fluoropyridin-4-yl)-2-fluorobenzofuran-5-yl)methoxy)-5-fluorophenyl)acetic acid]"
2,< 1000 nM,"CCc1ccc(CC(=O)O)c(OCc2cc(-c3ccnc(CN)c3F)c3oc(F)cc3c2)c1 [Compound 59i, 2-(2-((7-(2-(aminomethyl)-3-fluoropyridin-4-yl)-2-fluorobenzofuran-5-yl)methoxy)-4-ethylphenyl)acetic acid]"
3,> 10000 nM,"NCc1ccc(-c2nc(C(=O)Nc3ccccc3CC(=O)O)c3cccn3n2)cc1 [Compound 82g, 2-(2-(2-(4-(aminomethyl)phenyl)pyrrolo[2,1-f][1,2,4]triazine-4-carboxamido)phenyl)acetic acid]"
4,< 1000 nM,"CC(C)OC(=O)Nc1ccc(CC(=O)O)c(OCc2cc(-c3cccc(CN)c3)c3occc3c2)c1 [Compound 20h, 2-(2-((7-(3-(aminomethyl)phenyl)benzofuran-5-yl)methoxy)-4-((isopropoxycarbonyl)amino)phenyl)acetic acid]"
5,< 1000 nM,"CC(Oc1ccccc1CC(=O)O)c1cc(-c2cccc(CN)c2)c2occc2c1 (stereo not drawn) [Compound 77e, 2-(2-(1-(7-(3-(aminomethyl)phenyl)benzofuran-5-yl)ethoxy)phenyl)acetic acid]"
6,< 1000 nM,"NCc1nccc(-c2cc(COc3ccccc3CC(=O)O)cc3c2OCC3)c1F [Compound 40g, 2-(2-((7-(2-(aminomethyl)-3-fluoropyridin-4-yl)-2,3-dihydrobenzofuran-5-yl)methoxy)phenyl)acetic acid]"
7,< 1000 nM,"NCc1cccc(-c2cc(C(CC(=O)O)Oc3ccccc3CC(=O)O)cc3ccoc23)c1 (stereo not drawn) [Compound 62g, 3-(7-(3-(aminomethyl)phenyl)benzofuran-5-yl)-3-(2-(carboxymethyl)phenoxy)propanoic acid]"
8,< 1000 nM,"NCc1cc(-c2cc(COc3cc(C(F)(F)F)ccc3CC(=O)O)cc3ccoc23)ccn1 [Compound 57b, 2-(2-((7-(2-(aminomethyl)pyridin-4-yl)benzofuran-5-yl)methoxy)-4-(trifluoromethyl)phenyl)acetic acid]"
9,< 1000 nM,"NCc1cccc(-c2cc(COc3cc(C(F)(F)F)ccc3CC(=O)O)cc3ccoc23)c1F [Compound 58b, 2-(2-((7-(3-(aminomethyl)-2-fluorophenyl)benzofuran-5-yl)methoxy)-4-(trifluoromethyl)phenyl)acetic acid]"
10,> 10000 nM,"NCc1cc(-c2cc(COc3ccccc3CC(=O)O)cc3ccoc23)co1 [Compound 50e, 2-(2-((7-(5-(aminomethyl)furan-3-yl)benzofuran-5-yl)methoxy)phenyl)acetic acid]"
11,< 1000 nM,"CC(Oc1ccccc1CC(=O)O)c1cc(-c2cccc(CN)c2)c2occc2c1 (single isomer, unassigned; (-)) [Compound 77g, (−)-2-(2-(1-(7-(3-(aminomethyl)phenyl)benzofuran-5-yl)ethoxy)phenyl)acetic acid]"
12,< 1000 nM,"NCc1cccc(-c2cc(COc3cc(CNP(=O)(OCc4ccccc4)OCc4ccccc4)ccc3CC(=O)O)cc3ccoc23)c1 [Compound 34c, 2-(2-((7-(3-(aminomethyl)phenyl)benzofuran-5-yl)methoxy)-4-((bis(benzyloxy)phosphorylamino)methyl)phenyl)acetic acid]"
13,< 1000 nM,"NC(CF)c1cccc(-c2cc(COc3cc(F)ccc3CC(=O)O)cc3ccoc23)c1 (single isomer, unassigned; (+)) [Compound 15f, (+)-2-(2-((7-(3-(1-amino-2-fluoroethyl)phenyl)benzofuran-5-yl)methoxy)-4-fluorophenyl)acetic acid]"
14,< 1000 nM,"CC(=O)c1ccc(CC(=O)O)c(OCc2cc(-c3cccc(CN)c3)c3oc(F)cc3c2)c1 [Compound 64h, 2-(4-acetyl-2-((7-(3-(aminomethyl)phenyl)-2-fluorobenzofuran-5-yl)methoxy)phenyl)acetic acid]"
15,< 1000 nM,"CC(=O)c1ccc(CC(=O)O)c(OCc2cc(-c3cccc(CN)c3)c3occc3c2F)c1 [Compound 48g, 2-(4-acetyl-2-((7-(3-(aminomethyl)phenyl)-4-fluorobenzofuran-5-yl)methoxy)phenyl)acetic acid]"
16,1000 to 10000 nM,"CC(C)(C)OC(=O)Cc1ccccc1OCc1cc(-c2ccnc(CN)c2F)c2occc2c1 [Compound 39e, tert-butyl 2-(2-((7-(2-(aminomethyl)-3-fluoropyridin-4-yl)benzofuran-5-yl)methoxy)phenyl)acetate]"
